# Conditions: PAMPA
structure (smiles),measurement,value
"CC(=O)CC(c1ccccc1)c1c(O)c2ccccc2oc1=O (stereo not shown) [Warfarin, warfarin]",Log (Pe),−4.95

# From paper PMC3149900 (Chemical biology & drug design, 2010)
